The results in this text go back to patent publication US20080300182A1, “Eye disease treating agent and method for treating eye disease” (NIDEK CO., LTD., priority 2005, published 2008).

Test [1] relates to retinal ganglion cell. Nature of the test: Kainic acid-induced retinal ganglion cell death model, number of cells remaining in the ganglion cell layer (Test Example 4). Format: in vivo, rat. The protocol:
Retinal nerve protecting effect was examined using a kainic acid-induced retinal ganglion cell death animal model.
Male Wister/ST rats of 8 weeks of age were used in the test. After anesthesia by intraperitoneal administration of pentobarbital sodium, PACAP 38 (10 μmol) dissolved in sterile physiological saline or the administration solvent (physiological saline) as the negative control was injected once into the vitreous body in the same manner as in Test Example 3. Two days after the PACAP administration, kainic acid (5 nmol) was injected once into the vitreous body of each animal under anesthesia by a mixed liquid of ketamine and seractal. 7 days after the kainic acid administration, all animals were sacrificed by bleeding through the cutting of abdominal aorta under diethyl ether inhalation anesthesia and their eyeballs were enucleated. The enucleated eyeballs were fixed by soaking in a 1% formaldehyde-1.25% glutaraldehyde mixed fixing liquid. The fixed eyeballs were embedded in paraffin, and then retinal tissue sections of 4 μm in thickness traversing the optic disc were prepared and subjected to hematoxylin eosin staining. Effect of PACAP was judged by counting the number of cells remaining in the ganglion cell layer within a region of from 0.5 to 1.7 mm from the optic disc of each tissue specimen. […]

The test system of test [2] is Muller cell of the retina. Briefly: IL-6 expression in retinal tissue after administration into the vitreous body, anti-IL-6 immunostaining (Test Example 3). Format: in vivo, rat. The settings on record: 10^−11 mol PACAP. The protocol: The PACAP 38 was dissolved in sterile physiological saline to a concentration of 3.3 nmol/ml. This was stored under ice-cooling until just before the administration.
Male Wister/ST rats of 8 weeks of age were used in this test. After anesthesia by intraperitoneal administration of pentobarbital sodium, 3 μl per one eye of the administration liquid was injected from about 1 mm behind the limbus using a Hamilton glass syringe equipped with a 30G needle, that is, the liquid was injected into the vitreous body in such a manner that 10^−11 mol of PACAP reached the retina. After 1, 2, 3 and 7 days of the PACAP administration, each animal was sacrificed by bleeding through the cutting of abdominal aorta under diethyl ether inhalation anesthesia, and then both eyeballs were enucleated, and fixed with ice-cold 4% paraformaldehyde-0.1 M phosphate buffer (pH 7.4). The fixed eyeballs were subjected to sucrose replacement and then freeze-embedded to prepare frozen sections of 10 μm in thickness. By applying fluorescence immunostaining to each of the frozen sections using an anti-IL-6 antibody, expression of IL-6 in the retina was observed.

Test [3] deals with retinal ganglion cell. Briefly: Kainic acid-induced retinal ganglion cell death model, retinal tissue pNF-H content by sandwich ELISA (Test Example 5). Format: in vivo, rat. As to conditions: 7 days after exposure. The source says:
In order to clarify whether or not the IL-6 which is expressed in a delayed manner in Muller cell (Test Example 3) is concerned in the retinal ganglion cell death inhibitory effect of PACAP confirmed in Test Example 4, this was verified using the same animal model and using neurofilament (phosphorylated neurofilament-H; pNF-H) protein in the retinal tissue as the index. It is known that pNF-H is a protein which is specifically expressed in the retinal ganglion cell, and that the content of this protein in the retinal tissue can be used as a quantitative index for estimating degree of the retinal ganglion cell death.
A group in which 10 μmol of PACAP 38 is injected into the vitreous body 2 days before the kainic acid exposure in the same manner as in Test Example 4 (pretreatment group) and another group in which the same amount of PACAP is injected simultaneously with kainic acid (simultaneous treatment group) were set up as the test groups. The retinal tissue was collected 7 days after the kainic acid exposure, and the pNF-H protein was extracted. Amount of the pNF-H protein in retinal tissue was measured by the sandwich ELISA.
(ELISA stands for enzyme-linked immunosorbent assay.)

For another test, the system named is cultured rat Muller cell. Nature of the test: IL-6 production acceleration effect in cultured Muller cell (Test Example 1; IL-6 measured by B9 cell bioassay). As to conditions: 24 hours after addition of PACAP 38 (10^−12 M, 10^−9 M to 10^−6 M), vs no addition, p<0.01. In kind it is cell-based. The protocol:
Wister/ST rats of 14 days of age (20 animals) were sacrificed by bleeding through the cutting of abdominal aorta under diethyl ether anesthesia. The 40 eyeballs were immediately enucleated and soaked in Dulbecco's modified minimum essential medium (DMEM) containing 25 mM HEPES and antibiotics (penicillin 100 U/ml, streptomycin 100 μg/ml, amphotericin B 0.25 μg/ml), one night at room temperature under shade. Next, the eyeballs were transferred into DMEM containing 0.1% trypsin and 70 U/ml collagenase and incubated at 37° C. for 60 minutes. Thereafter, retinas were removed from the eyeballs and transferred into DMEM supplemented with antibiotics and 10% FBS (medium for culturing use) (8 retinas/10 ml DMEM). The retinas were dispersed and suspended until they became small aggregates through the pipetting using a Pasteur pipette having thinned tip. This cell suspension was seeded onto a polystyrene dish (Asahi Techno Glass) and cultured by keeping at 37° C. under an environment of 5% CO2/95% air. […]
The IL-6 concentration in the thus recovered Muller cell culture supernatant was measured using B9 cell which is a hybridoma sub-clone of an IL-6-dependent mouse. […] Regarding the bioassay of IL-6, growth of B9 cell was determined as the fluorescence intensity by Alamar Blue.

Ends that are not written are not given here.

“pituitary adenylate cyclase-activating polypeptide (HSDGIFTDSYSRYRKQMAVKKYLAAVLGKRYKQRVKNK; ends and bridges not checked; listed as Ovis sp.) [PACAP 38]”: the “Average value of the number of cells remaining in the ganglion cell layer” value in the test with retinal ganglion cell [1] (PACAP 38 (10 μmol) intravitreal 2 days before kainic acid (5 nmol), 7 days after kainic acid, 0.5 to 1.7 mm from optic disc) is recorded as 34.8 cells/mm. Besides, the “inhibition of the reduction of the number of cells caused by kainic acid” value with retinal ganglion cell [1] (PACAP 38 (10 μmol) intravitreal 2 days before kainic acid, vs physiological saline control, p<0.05) is recorded as “found with a significance”. In addition, the “Expression of IL-6 in the retina” value was “not found” in test [2] (1 day after intravitreal administration) and “hardly observed” in test [2] (7 days after intravitreal administration). Also, the “IL-6-positive cell in the retina” value in test [2] (2 days after intravitreal administration) and in test [2] (3 days after intravitreal administration) was “frequently observed” throughout. In addition, the “reduction of the amount of pNF-H protein in the retinal tissue induced by kainic acid” value with retinal ganglion cell [3] (pretreatment group: 10 μmol PACAP 38 intravitreal 2 days before kainic acid, vs saline, p<0.01) is reported as “inhibited with a significance”. The “effect to inhibit reduction of the amount of pNF-H” value with retinal ganglion cell [3] (simultaneous treatment group: 10 μmol PACAP 38 injected simultaneously with kainic acid) is recorded as “completely absent”. For the same substance, the “IL-6 concentration in the culture liquid” value with cultured rat Muller cell is reported as “significantly increased”.
